Assays:
[1] = target: CDK7/cyclinH/MAT1 complex (Homo sapiens, UniProt P50613); test: In-vitro enzymatic inhibitory activity testing, CDK7 inhibition assay (Caliper EZ Reader II); type: biochemical; details: CDK7/cyclinH/MAT1 6 nM, 180 min at 27° C.
Summary of the method: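 Enzyme preincubated 10 min with compound, then peptide substrate plus ATP added in 80 mM MES pH 6.5, 10 mM MgCl2 buffer; 180 min at 27 °C, stopped with EDTA.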

CDK2/cyclinE1 complex = CDK2/cyclinE1 complex (Homo sapiens, UniProt P24941); test: In-vitro enzymatic inhibitory activity testing, CDK2 inhibition assay (Caliper EZ Reader II); type: biochemical; details: CDK2/cyclinE1 0.5 nM, 180 min at 27° C.
Summary of the method: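 CDK2/cyclinE1 (0.5 nM) phosphorylated 5-FAM-CDK7tide (2 μM) in MES buffer pH 6.5 with MgCl2, Tween 20 and BSA. Substrate and product were separated electrophoretically on a Caliper EZ Reader II. IC50 values came from nonlinear dose-response fits.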

CDK9/cyclinT1 complex = CDK9/cyclinT1 complex (Homo sapiens, UniProt P50750); test: In-vitro enzymatic inhibitory activity testing, CDK9 inhibition assay (Caliper EZ Reader II); type: biochemical; details: CDK9/cyclinT1 8 nM, 180 min at 27° C.
Summary of the method: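 Phosphorylated and unphosphorylated fluorescent peptide were resolved by mobility-shift electrophoresis, with IC50 taken from a nonlinear regression of dose-response data. Reactions ran 180 min at 27 °C in MES buffer pH 6.5 with MgCl2, after 10 min enzyme–compound preincubation, using 8 nM CDK9/cyclinT1 and 5-FAM-CDK9tide.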

[2] = target: T1, CDK12 (aa686-1082)/cyclinK complex (Homo sapiens, UniProt Q9NYV4); test: In-vitro enzymatic inhibitory activity testing, CDK12 inhibition assay (Caliper EZ Reader II); type: biochemical; details: CDK12/cyclinK 50 nM, 180 min at 27° C.; read-out: CDK12 IC50
T1 construct: A CDK12 (aa686-1082)/cyclinK complex (50 nM)
Summary of the method: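 CDK12 (aa686-1082)/cyclinK complex at 50 nM was pre-incubated with compound for 10 min, then reacted 180 min at 27° C with ATP and 2 μM 5-FAM-CDK9tide in pH 6.5 MES buffer with 10 mM MgCl2. Reactions were EDTA-quenched and product resolved electrophoretically; IC50 from nonlinear curve fit.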

[3] = system: human breast cancer cells HCC70; test: Cell biological activity detection (CyQuant, 72 hours), HCC70; type: cell-based; details: Homo sapiens, HCC70, 72 h, incubation for 72 hours
Summary of the method: (§1)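 IC50 derived from CyQuant Direct nuclear staining (488 nm excitation) after 72 h compound exposure at 37 °C, 5% CO2. Compounds tested in 9 concentrations from 10 μM, 1:4 steps, 0.2% DMSO, on A2780 or HCC70 cells plated overnight at 2000/well in RPMI 1640 + 10% FBS.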

ovarian cancer A2780 = test: Cell biological activity detection (CyQuant, 72 hours), A2780; type: cell-based, human; details: Homo sapiens, A2780, 72 h, A2780 cells, incubation for 72 hours
Summary of the method: as §1

T1 sequence (Q9NYV4 686-1082, species assumed): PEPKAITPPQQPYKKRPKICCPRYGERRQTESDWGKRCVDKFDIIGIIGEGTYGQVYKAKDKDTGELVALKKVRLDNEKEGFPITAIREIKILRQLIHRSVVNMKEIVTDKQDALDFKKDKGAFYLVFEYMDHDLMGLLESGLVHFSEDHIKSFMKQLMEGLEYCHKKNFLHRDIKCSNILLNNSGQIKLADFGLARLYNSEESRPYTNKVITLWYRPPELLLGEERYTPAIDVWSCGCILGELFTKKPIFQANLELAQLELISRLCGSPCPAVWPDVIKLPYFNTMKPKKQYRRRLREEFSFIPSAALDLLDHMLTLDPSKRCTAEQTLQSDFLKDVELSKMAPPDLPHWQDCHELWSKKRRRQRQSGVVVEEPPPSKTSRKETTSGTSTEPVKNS
T1 sequence (O75909 whole entry partner, species assumed, the tested form may be a part): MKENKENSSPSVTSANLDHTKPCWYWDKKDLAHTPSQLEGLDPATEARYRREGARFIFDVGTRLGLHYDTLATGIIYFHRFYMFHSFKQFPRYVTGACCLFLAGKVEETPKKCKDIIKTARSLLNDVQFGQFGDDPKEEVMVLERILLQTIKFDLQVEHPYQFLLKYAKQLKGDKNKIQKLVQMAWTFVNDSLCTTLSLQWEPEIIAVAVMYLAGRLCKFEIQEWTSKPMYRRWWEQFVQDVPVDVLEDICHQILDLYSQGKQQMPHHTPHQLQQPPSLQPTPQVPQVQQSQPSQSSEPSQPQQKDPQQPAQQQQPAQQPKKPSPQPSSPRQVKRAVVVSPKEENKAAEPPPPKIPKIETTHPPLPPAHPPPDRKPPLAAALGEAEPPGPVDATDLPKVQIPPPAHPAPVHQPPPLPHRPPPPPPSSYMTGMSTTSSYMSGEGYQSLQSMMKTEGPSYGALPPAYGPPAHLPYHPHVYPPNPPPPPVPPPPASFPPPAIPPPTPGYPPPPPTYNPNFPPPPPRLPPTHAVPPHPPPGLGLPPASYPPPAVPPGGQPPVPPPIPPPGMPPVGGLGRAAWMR
Chain of CDK7/cyclinH/MAT1 complex (P50613 whole entry, species assumed): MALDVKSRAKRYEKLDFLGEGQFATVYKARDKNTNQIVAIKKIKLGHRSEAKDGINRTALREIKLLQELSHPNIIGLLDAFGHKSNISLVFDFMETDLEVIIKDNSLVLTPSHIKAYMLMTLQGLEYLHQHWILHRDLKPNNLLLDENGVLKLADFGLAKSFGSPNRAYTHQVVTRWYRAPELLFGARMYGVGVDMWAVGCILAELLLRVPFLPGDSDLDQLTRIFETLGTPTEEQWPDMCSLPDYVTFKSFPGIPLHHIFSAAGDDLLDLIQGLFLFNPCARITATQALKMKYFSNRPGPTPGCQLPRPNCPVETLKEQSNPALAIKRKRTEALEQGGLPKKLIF
Chain of CDK7/cyclinH/MAT1 complex (P51946 whole entry partner, species assumed): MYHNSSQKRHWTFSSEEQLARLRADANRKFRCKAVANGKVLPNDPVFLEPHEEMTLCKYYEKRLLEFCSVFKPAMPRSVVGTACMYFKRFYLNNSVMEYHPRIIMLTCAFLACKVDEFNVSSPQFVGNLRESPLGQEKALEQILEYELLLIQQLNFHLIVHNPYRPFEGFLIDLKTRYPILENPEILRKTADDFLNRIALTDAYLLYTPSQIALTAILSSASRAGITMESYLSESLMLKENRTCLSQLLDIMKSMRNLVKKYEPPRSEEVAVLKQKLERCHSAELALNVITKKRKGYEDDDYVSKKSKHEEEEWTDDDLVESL
Chain of CDK7/cyclinH/MAT1 complex (P51948 whole entry partner, species assumed): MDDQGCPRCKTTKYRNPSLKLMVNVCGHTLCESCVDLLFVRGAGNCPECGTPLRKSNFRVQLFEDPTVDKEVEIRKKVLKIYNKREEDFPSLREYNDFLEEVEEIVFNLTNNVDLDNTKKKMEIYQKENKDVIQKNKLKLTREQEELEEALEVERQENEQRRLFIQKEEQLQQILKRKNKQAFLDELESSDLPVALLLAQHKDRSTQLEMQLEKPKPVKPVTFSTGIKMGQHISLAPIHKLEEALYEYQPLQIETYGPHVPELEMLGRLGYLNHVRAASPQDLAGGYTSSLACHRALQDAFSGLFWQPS
Chain of CDK9/cyclinT1 complex (P50750 whole entry, species assumed): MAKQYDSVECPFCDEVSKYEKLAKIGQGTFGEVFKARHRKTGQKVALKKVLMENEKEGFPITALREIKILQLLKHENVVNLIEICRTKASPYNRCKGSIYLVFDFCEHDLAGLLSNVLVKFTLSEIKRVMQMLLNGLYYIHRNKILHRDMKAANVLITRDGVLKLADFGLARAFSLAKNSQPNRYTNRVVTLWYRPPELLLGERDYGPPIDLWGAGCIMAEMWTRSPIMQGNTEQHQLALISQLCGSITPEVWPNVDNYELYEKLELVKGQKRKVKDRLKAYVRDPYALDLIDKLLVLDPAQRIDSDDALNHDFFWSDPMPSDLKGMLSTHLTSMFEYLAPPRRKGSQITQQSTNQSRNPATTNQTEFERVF
Chain of CDK9/cyclinT1 complex (O60563 whole entry partner, species assumed): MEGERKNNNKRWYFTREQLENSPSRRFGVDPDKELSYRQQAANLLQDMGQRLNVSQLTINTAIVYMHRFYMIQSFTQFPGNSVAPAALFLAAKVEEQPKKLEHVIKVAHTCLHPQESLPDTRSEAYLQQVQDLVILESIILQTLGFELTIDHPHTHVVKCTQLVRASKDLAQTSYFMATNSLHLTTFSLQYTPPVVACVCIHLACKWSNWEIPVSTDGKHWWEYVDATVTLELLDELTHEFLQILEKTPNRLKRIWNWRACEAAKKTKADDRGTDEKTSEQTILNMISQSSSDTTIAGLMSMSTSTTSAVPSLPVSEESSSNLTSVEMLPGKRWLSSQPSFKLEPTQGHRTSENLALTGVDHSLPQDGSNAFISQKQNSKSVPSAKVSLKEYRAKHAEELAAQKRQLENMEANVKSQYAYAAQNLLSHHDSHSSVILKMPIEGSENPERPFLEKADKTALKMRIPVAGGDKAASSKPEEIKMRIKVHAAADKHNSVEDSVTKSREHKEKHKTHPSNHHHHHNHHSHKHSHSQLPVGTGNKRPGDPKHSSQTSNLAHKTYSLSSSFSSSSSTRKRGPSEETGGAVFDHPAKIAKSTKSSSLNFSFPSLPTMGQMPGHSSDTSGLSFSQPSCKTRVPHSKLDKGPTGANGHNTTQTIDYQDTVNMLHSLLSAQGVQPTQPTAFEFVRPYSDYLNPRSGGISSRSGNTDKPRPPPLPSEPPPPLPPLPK

Compound	IC50 [1] [nM]	IC50 (CDK2/cyclinE1 complex) [nM]	IC50 (CDK9/cyclinT1 complex) [nM]	IC50 [2] [nM]	IC50 (ovarian cancer A2780) [nM]	IC50 [3] [nM]
CP(C)(=O)c1cccc2c(-c3nc(N[C@H]4CC[C@H](N)C4)ncc3C(F)(F)F)c[nH]c12 [Compound 81]	< 20	200 to 5000	200 to 5000	200 to 5000	< 20	< 20
CP(C)(=O)c1cccc2c(-c3nc(Nc4cn[nH]c4)ncc3C(F)(F)F)c[nH]c12 [Compound 84, (3-(2-((1H-pyrazol-4-yl)amino)-5-(trifluoromethyl)pyrimidin-4-yl)-1H-indole-7-yl)dimethylphosphine oxide]	< 20	20 to 200	5000 to 50000	200 to 5000	< 20	< 20
CP(C)(=O)c1cccc2c(-c3nc(NCC4(O)CCC4)ncc3C(F)(F)F)c[nH]c12 [Compound 90]	20 to 200	5000 to 50000	5000 to 50000	> 50000	20 to 200	20 to 200
CC(C)(O)CNc1ncc(C(F)(F)F)c(-c2c[nH]c3c(P(C)(C)=O)cccc23)n1 [Compound 95, (3-(2-((2-hydroxy-2-methylpropyl)amino)-5-(trifluoromethyl)pyrimidin-4-yl)-1H-indole-7-yl)dimethylphosphine oxide]	< 20	5000 to 50000	> 50000	> 50000	20 to 200	20 to 200

Now from value to compound, other results behind:

IC50 [1] [nM]	IC50 (CDK2/cyclinE1 complex) [nM]	IC50 (CDK9/cyclinT1 complex) [nM]	IC50 [2] [nM]	IC50 (ovarian cancer A2780) [nM]	Compound	IC50 [3] [nM]
< 20	200 to 5000	5000 to 50000	200 to 5000	< 20	CP(C)(=O)c1cccc2c(-c3nc(N[C@@H]4CC[C@@]5(CCNC5)C4)ncc3C(F)(F)F)c[nH]c12 [Compound 99, (3-(2-(((5R,7R)-2-azaspiro[4.4]non-7-yl)amino)-5-(trifluoromethyl)pyrimidin-4-yl)-1H-indole-7-yl)dimethylphosphine oxide]	< 20
20 to 200	5000 to 50000	200 to 5000	200 to 5000	20 to 200	FC(F)(F)c1cnc(N[C@H]2CCCNC2)nc1-c1c[nH]c2cc(N3CCCC3)ccc12 [Compound 101, (S)—N-(piperidin-3-yl)-4-(6-(pyrrolidin-1-yl)-1H-indole-3-yl)-5-(trifluoromethyl)pyrimidin-2-amine, reference compound]	200 to 5000
20 to 200	5000 to 50000	> 50000	> 50000	20 to 200	CC(C)[C@@H](CO)Nc1ncc(C(F)(F)F)c(-c2c[nH]c3c(P(C)(C)=O)cccc23)n1 [Compound 115, (S)-(3-(2-((1-hydroxy-3-methylbutan-2-yl)amino)-5-(trifluoromethyl)pyrimidin-4-yl)-1H-indole-7-yl)dimethylphosphine oxide]	20 to 200
20 to 200	5000 to 50000	> 50000	> 50000	20 to 200	CP(C)(=O)c1cccc2c(-c3nc(NC4(CO)CCCC4)ncc3C(F)(F)F)c[nH]c12 [Compound 116, (3-(2-((1-(hydroxymethyl)cyclopentyl)amino)-5-(trifluoromethyl)pyrimidin-4-yl)-1H-indole-7-yl)dimethylphosphine oxide]	20 to 200
< 20	5000 to 50000	> 50000	> 50000	< 20	CP(C)(=O)c1cccc2c(-c3nc(NC4(CO)CCOC4)ncc3C(F)(F)F)c[nH]c12 (stereo not drawn) [Compound 117, (3-(2-((3-(hydroxymethyl)tetrahydrofuran-3-yl)amino)-5-(trifluoromethyl)pyrimidin-4-yl)-1H-indole-7-yl)dimethylphosphine oxide]	< 20
< 20	200 to 5000	> 50000	> 50000	20 to 200	CP(C)(=O)c1cccc2c(-c3nc(NC[C@H]4C[C@H]4CO)ncc3C(F)(F)F)c[nH]c12 [Compound 141, (3-(2-((((1S,2R)-2-(hydroxymethyl)cyclopropyl)methyl)amino)-5-(trifluoromethyl)pyrimidin-4-yl)-1H-indole-7-yl)dimethylphosphine oxide]	20 to 200

From patent publication US20240124504A1, “AROMATIC HETEROCYCLIC COMPOUND, AND PHARMACEUTICAL COMPOSITION AND APPLICATION THEREOF” (GT APEIRON THERAPEUTICS LIMITED, priority 2020, published 2024)
